# Test results as given in ChEMBL document CHEMBL5465560, “Selectivity Literature for EUbOPEN Chemogenomic Library” (2024).
# Assays:
# [1] = biological target: T1, Tyrosine-protein kinase Tec (Homo sapiens) (UniProt P42680); test: Selectivity interaction (KinomeScan (DiscoverX)) EUB0000618a TEC; conditions: at 10 µM
# T1 sequence (whole entry): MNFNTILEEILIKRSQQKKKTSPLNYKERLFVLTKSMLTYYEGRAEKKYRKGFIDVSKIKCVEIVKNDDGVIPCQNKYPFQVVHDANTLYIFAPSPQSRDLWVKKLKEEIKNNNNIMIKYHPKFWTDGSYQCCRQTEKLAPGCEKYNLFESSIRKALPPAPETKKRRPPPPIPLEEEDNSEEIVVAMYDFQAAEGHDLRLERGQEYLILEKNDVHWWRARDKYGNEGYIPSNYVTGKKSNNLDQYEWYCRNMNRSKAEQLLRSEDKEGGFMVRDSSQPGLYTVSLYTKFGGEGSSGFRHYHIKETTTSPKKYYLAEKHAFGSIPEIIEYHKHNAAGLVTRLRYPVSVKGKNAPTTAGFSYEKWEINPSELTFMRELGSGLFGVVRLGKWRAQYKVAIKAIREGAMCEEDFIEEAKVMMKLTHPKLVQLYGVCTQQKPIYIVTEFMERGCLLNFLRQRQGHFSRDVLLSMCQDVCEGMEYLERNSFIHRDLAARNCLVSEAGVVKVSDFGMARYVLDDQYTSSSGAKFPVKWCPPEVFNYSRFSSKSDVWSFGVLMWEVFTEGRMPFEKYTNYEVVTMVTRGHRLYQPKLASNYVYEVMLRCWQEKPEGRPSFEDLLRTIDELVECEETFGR
# [2] = biological target: T2, Mitogen-activated protein kinase kinase kinase kinase 3 (Homo sapiens) (UniProt Q8IVH8); test: Selectivity interaction (KinomeScan (DiscoverX)) EUB0000618a MAP4K3; conditions: at 10 µM
# T2 sequence (whole entry): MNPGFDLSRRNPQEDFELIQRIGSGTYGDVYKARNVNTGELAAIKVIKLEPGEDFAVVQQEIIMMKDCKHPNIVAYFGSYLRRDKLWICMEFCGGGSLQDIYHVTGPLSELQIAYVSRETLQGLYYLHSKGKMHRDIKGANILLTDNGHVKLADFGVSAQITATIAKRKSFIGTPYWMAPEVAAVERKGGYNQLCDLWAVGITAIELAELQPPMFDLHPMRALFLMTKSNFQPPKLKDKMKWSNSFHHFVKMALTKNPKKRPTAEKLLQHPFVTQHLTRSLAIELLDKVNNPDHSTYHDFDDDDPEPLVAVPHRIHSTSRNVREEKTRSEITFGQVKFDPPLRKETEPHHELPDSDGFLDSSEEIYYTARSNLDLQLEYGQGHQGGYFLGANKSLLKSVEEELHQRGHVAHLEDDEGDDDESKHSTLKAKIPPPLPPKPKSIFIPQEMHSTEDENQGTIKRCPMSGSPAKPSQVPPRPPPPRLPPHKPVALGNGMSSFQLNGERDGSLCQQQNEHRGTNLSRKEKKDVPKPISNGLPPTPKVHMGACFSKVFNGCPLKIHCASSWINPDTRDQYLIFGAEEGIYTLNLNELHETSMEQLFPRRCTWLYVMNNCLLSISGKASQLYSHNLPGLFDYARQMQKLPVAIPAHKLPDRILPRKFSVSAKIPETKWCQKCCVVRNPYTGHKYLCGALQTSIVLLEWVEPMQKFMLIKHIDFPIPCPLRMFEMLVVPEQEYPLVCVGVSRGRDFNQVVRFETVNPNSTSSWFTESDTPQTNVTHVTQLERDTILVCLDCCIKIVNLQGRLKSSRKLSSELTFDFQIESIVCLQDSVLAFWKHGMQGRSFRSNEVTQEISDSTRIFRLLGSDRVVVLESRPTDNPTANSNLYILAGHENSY
# [3] = biological target: Myosin light chain kinase, smooth muscle (Homo sapiens, UniProt Q15746); test: Selectivity interaction (KinomeScan (DiscoverX)) EUB0000045b MYLK; conditions: at 1 µM
# [4] = biological target: Serine/threonine-protein kinase 24 (Homo sapiens) (UniProt Q9Y6E0); test: Selectivity interaction (KinomeScan (DiscoverX)) EUB0000045b STK24
# Chain of Serine/threonine-protein kinase 24 (Homo sapiens) (Q9Y6E0 whole entry, looked up): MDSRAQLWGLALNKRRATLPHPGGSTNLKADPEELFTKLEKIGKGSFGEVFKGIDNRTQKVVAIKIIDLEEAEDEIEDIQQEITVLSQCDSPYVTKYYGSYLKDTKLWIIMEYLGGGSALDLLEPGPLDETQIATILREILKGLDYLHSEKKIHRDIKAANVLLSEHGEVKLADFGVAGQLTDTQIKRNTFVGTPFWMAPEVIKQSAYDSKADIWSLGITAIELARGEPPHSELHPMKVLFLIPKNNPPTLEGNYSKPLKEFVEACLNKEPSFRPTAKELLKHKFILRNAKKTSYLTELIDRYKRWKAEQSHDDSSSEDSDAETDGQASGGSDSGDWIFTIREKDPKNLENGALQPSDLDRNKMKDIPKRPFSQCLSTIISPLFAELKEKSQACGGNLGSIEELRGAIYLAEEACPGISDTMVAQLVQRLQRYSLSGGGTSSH
# [5] = biological target: BDNF/NT-3 growth factors receptor (Homo sapiens) (UniProt Q16620); test: Selectivity interaction (KinomeScan (DiscoverX)) EUB0000595a NTRK2; conditions: at 10 µM
# Chain of BDNF/NT-3 growth factors receptor (Homo sapiens) (Q16620 32-822 limits assumed): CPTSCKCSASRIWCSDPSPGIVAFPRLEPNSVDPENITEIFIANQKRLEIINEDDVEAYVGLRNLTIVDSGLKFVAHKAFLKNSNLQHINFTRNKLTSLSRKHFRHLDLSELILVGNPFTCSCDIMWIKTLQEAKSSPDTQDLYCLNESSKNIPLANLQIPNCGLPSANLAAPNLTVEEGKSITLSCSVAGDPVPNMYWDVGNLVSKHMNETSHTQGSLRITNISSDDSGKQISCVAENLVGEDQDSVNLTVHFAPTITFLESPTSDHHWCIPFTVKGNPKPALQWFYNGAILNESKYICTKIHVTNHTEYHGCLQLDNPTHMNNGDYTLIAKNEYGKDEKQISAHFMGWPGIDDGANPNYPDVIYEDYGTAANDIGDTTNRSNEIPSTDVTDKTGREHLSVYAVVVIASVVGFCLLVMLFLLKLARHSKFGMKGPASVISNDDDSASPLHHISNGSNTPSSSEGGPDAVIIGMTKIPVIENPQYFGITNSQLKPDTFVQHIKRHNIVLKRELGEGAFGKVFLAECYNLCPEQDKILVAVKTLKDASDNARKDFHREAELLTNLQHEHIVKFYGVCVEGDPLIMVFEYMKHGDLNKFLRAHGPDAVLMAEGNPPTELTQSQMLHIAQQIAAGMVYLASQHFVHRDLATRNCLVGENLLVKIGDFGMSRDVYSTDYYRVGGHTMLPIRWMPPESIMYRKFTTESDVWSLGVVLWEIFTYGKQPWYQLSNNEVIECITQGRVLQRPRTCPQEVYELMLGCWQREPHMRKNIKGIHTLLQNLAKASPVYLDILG
# [6] = biological target: Calcium/calmodulin-dependent protein kinase type 1G (Homo sapiens) (UniProt Q96NX5); conditions: at 10 µM
# Chain of Calcium/calmodulin-dependent protein kinase type 1G (Homo sapiens) (Q96NX5 whole entry, the tested form may be a part): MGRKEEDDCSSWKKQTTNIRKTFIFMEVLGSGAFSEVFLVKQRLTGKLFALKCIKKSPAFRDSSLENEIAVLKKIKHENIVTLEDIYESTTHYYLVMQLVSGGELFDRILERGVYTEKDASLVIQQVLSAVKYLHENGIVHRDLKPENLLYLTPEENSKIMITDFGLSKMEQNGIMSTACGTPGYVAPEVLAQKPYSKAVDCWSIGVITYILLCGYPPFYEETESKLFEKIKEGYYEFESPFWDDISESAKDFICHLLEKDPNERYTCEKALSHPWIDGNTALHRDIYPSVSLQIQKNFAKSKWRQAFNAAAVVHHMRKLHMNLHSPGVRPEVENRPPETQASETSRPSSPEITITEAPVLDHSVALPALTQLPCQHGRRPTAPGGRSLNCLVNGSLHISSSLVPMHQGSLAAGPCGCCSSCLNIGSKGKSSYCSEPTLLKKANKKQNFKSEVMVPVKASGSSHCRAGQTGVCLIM
# [7] = biological target: LIM domain kinase 1 (Homo sapiens) (UniProt P53667); conditions: at 10 µM
# Chain of LIM domain kinase 1 (Homo sapiens) (P53667 whole entry, looked up, the tested form may be a part): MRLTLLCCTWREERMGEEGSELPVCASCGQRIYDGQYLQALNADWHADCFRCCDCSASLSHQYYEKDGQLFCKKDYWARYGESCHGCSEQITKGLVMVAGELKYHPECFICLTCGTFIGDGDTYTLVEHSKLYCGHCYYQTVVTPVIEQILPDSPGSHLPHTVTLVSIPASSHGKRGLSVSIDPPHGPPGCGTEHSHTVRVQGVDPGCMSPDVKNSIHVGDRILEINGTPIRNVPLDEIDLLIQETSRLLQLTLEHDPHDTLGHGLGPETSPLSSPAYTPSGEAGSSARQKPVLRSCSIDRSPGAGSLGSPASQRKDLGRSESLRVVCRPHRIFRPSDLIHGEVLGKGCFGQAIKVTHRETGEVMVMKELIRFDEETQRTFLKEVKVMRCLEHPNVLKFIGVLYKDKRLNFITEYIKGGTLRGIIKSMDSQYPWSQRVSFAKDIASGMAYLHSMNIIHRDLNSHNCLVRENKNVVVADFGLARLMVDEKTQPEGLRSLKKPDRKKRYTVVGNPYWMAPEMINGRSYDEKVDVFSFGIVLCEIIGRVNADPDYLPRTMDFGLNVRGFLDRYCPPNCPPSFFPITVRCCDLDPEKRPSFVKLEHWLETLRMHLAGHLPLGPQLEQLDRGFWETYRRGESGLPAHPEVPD
# [8] = biological target: T3, Serine/threonine-protein kinase ULK3 (Homo sapiens) (UniProt Q6PHR2); test: Selectivity interaction (ActivX KiNativ screen (kinase selectivity in THP-1 cell lysates)) EUB0000639a ULK3; type: subcellular; conditions: lysate
# T3 sequence (whole entry): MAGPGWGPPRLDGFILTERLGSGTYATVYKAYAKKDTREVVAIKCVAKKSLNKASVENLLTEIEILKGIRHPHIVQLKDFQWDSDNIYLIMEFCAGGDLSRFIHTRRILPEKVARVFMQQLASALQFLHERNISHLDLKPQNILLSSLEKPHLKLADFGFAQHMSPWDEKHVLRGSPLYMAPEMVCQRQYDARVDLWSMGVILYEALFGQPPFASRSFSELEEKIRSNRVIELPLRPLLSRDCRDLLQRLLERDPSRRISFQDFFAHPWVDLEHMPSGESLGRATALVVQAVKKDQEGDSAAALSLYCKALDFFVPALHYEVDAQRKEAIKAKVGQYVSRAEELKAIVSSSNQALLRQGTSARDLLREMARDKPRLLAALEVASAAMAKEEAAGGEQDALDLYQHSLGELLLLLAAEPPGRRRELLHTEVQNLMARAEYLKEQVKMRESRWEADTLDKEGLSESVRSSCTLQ
# [9] = biological target: Calcium/calmodulin-dependent protein kinase type 1G (Homo sapiens) (UniProt Q96NX5); test: Selectivity interaction (KinomeScan (DiscoverX)) EUB0000092b CAMK1G; conditions: at 10 µM
# [10] = biological target: Myosin-IIIa (Homo sapiens) (UniProt Q8NEV4); test: Selectivity interaction (LanthaScreen Eu Kinase Binding Assay) EUB0001632a MYO3A; conditions: at 10 µM
# Chain of Myosin-IIIa (Homo sapiens) (Q8NEV4 whole entry): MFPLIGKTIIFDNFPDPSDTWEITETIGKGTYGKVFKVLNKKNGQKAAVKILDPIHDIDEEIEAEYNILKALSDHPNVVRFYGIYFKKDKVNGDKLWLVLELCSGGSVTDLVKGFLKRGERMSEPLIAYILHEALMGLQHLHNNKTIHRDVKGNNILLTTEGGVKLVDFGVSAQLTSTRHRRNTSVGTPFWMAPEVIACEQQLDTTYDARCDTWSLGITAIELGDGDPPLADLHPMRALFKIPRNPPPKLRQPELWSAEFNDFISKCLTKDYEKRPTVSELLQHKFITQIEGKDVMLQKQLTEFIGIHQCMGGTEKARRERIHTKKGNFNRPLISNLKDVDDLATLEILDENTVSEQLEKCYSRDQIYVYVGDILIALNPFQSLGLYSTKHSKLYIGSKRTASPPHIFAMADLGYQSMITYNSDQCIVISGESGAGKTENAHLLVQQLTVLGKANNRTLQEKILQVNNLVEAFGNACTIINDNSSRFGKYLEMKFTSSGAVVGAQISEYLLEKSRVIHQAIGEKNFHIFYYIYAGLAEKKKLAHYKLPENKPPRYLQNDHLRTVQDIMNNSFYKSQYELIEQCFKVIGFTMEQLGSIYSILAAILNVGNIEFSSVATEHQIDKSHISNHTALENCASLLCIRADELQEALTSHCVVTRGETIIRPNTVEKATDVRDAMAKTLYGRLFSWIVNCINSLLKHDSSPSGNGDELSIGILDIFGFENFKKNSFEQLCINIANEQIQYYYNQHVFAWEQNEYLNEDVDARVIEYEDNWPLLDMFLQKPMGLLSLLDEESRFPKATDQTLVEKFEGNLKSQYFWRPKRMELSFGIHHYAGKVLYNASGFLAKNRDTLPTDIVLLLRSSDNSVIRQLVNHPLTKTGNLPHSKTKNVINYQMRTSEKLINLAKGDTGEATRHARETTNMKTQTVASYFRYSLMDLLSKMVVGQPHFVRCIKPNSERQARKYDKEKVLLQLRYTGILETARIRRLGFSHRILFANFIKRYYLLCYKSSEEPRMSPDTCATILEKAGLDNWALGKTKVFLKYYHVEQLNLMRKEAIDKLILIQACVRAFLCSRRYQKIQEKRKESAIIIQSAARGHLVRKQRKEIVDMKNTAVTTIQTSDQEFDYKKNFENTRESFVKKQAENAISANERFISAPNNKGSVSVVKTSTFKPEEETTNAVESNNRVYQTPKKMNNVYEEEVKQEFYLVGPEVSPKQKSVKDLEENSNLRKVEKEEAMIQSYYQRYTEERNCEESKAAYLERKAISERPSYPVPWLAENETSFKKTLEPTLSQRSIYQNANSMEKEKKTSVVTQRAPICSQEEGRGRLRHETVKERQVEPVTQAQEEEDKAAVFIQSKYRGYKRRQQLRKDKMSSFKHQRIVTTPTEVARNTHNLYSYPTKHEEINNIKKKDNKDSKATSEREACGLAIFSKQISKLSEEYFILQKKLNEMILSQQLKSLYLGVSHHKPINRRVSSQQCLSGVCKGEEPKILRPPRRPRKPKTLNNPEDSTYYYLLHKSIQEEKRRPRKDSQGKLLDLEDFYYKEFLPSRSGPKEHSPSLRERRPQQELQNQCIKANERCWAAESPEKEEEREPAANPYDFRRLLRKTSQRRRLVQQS
smiles,measurement,setting,value
O[C@H]1CC[C@H](Nc2ncc3nc(Nc4c(F)cc(F)cc4F)n([C@H]4CCOC4)c3n2)CC1,% of control,[1],100%
same,% of control,[2],85%
C=CC(=O)Nc1cc(-n2c(=O)ccc3cnc4ccc(-c5ccc(NS(C)(=O)=O)cc5)cc4c32)ccc1C,% of control,[3],100%
same,% of control,[4]; at 1 µM,100%
same,% of control,[4]; at 10 µM,93%
COCC(=O)NC/C=C/c1ccc2ncnc(Nc3ccc(Oc4ccc(C)nc4)c(C)c3)c2c1 [CP-724714],% of control,[5],100%
same,% of control,[6],96%
Cc1cc([C@@H](C)Nc2ccccc2C(=O)O)c2nc(N3CCOCC3)cc(=O)n2c1 [AZD-6482],% of control,[7],100%
CC[C@@H]1[C@H](F)C(=O)N[C@@H]1COc1nccc2cc(C(N)=O)c(OC)cc12 [ZIMLOVISERTIB],% of inhibition,[8]; at 0.01 µM,11.3%
same,% of inhibition,[8]; at 0.04 µM,2.1%
same,% of inhibition,[8]; at 0.2 µM,3.4%
same,% of inhibition,[8]; at 1 µM,5.1%
same,% of inhibition,[8]; at 5 µM,-3.4%
CCC(=O)N1CCN(c2ccc(-n3c(=O)ccc4cnc5ccc(-c6cnc7ccccc7c6)cc5c43)cc2C(F)(F)F)CC1,% of control,[9],74%
Cn1cc(-n2cnc3c(NCc4nc5cc(Cl)c(Cl)cc5[nH]4)nc(N4CCOCC4)nc32)cn1,% of inhibition,[10],-42.6%
